# Results published in patent US9193954B2, “Methods and compositions for mesenchymal stem cell proliferation” (priority 2011, dated 2015).
# Legend:
# [1] = system: hMSCs; assay: Two-dimensional hMSC proliferation by manual cell counts (trypan blue, hemocytometer); type: cell-based, human; conditions: for increase in cell population compared to untreated controls: day 41, 24 hr treatment
# Experimental: FIG. 4 Schematic representation of 41 day hMSC monolayer culture after 24 hr exposure to BIO-containing media (A). Cells were trypsinized and manually counted on days 0, 1, 3, 6, 19, 27, 34, 37, and 41 and shown to undergo a dose-dependent, BIO-mediated increase in proliferation (B).
# hMSCs or C3H10T1/2s were seeded at a density of 5,000 cell/cm^2 in 24-well tissue culture plates (Greiner Bio-One, Monroe, N.C.) and allowed to become adherent over a period of 24 hrs prior to treatment. BIO was solubilized in dimethyl sulfoxide (DMSO) to prepare 200 and 500 μM stock solutions. 10 μL of BIO in DMSO was added to 1 mL of culture media so that the final concentrations of 0, 2, and 5 μM were achieved. The cells were cultured with BIO-containing media for 24 hrs after which media was replaced by media without BIO, as illustrated in FIGS. 4a and 7a (two-dimensional treatment and three-dimensional treatment respectively).
# During culture, hMSC viability was periodically assessed using an alamarBlue metabolic assay (AbD Serotec, UK). Culture media was replaced with a 10% alamarBlue-media solution and allowed to incubate at 37° C. for 2 hr. After incubation, alamarBlue solution was transferred to black 96-well plates and media was refreshed. Fluorescence intensity was measured using a Tecan Infinite 200 PRO plate-reader (excitation/emission: 570/600 nm). To assess hMSC proliferation, cells were trypsinized and counted using trypan blue exclusion and a hemocytometer. Average cell counts were normalized to data collected on day 0 to illustrate the effect of BIO on hMSC proliferation over time.
# [2] = system: active nuclear β-catenin; assay: TOPFlash/FOPFlash reporter assay for active nuclear β-catenin in C3H10T1/2; type: cell-based, mouse; conditions: for increase in normalized TOPFlash signal compared to untreated controls: after 24 hr treatment, C3H10T1/2
# Description: FIG. 3 Schematic representation of 3 hr C3H10T1/2 transfection with TOP/FOPFlash DNA plasmid followed by 24 hr exposure to BIO-containing media and subsequent analysis for active nuclear β-catenin over 5 days (A). Active nuclear β-catenin concentrations (TOPFlash) show a BIO-mediated dose-dependent increase immediately after BIO treatment as compared to control plasmid (FOPFlash) (B). Increased active nuclearβ-catenin concentrations persists for 3 days after BIO-treatment before returning to basal levels (C).
# The β-catenin TOPFlash reporter plasmid and the FOPFlash mutant control (Addgene Plasmid #12456, and Addgene Plasmid #12457 were obtained in the form of DH5alpha bacterial stabs. Bacteria were streaked onto ampicillin-containing agar plates and grown overnight at 37° C. A single colony was selected, grown in 50 ml Luria-Bertani (LB) broth with 100 μg/ml ampicillin (Gibco) to select for ampicillin resistant colonies, and cultured at 37° C. under constant agitation for 24 hrs. Bacteria were centrifuged to form a pellet and plasmid DNA was purified using a Plasmid Midi Kit (Qiagen). Plasmid DNA was digested using EcoRI and PvuI restriction endonucleases (New England Biolabs) and fragments were separated on a 0.8% agarose gel. Molecular weights were verified using a standard DNA ladder (HyperLadder I, BioLine).
# C3H10T1/2 mouse embryonic fibroblasts were seeded in multiple 48-well plates and treated with BIO containing growth media for 24 hrs to analyze the effects of β-catenin activity over time. […]
# Luciferase activity was measured prior to BIO treatment (day 0), as well as on days 1, 2, 3, 4, and 5 after the 24 hr BIO treatment period. […] To each 96-well 25 μl of Luciferase Assay Reagent (Promega, Madison, Wis.) was added and total luminescence was measure immediately using a BioTek Synergy Mx plate-reader. Total luminescence was normalized to cellular DNA concentration using a Quant-iT PicoGreen dsDNA Assay Kit (Invitrogen) to account for well-to-well variability in cell density.
# [3] = system: stem markers Sox2 and Nanog; assay: RT-PCR of stem markers Sox2 and Nanog at end of 33 day culture, normalized to GAPDH (Example 1); type: cell-based, human; conditions: end of 33 day time course
# Experimental: FIG. 2 RNA was harvested from BIO treated hMSCs at day […] and analyzed for expression of stem markers Sox2 and Nanog. Expression was normalized to housekeeping gene GAPDH. Error bars shown are standard error (n=3).
# At the end of the 33 day experimental time course RNA was isolated (Omega E.N.Z.A total RNA kit) from the hMSC specimens (n=3) and reverse transcription (Bio-Rad iSCRIPT cDNA synthesis kit) was performed to yield cDNA. Forward and reverse primers (Table 1.) for the stem markers Sox2 and Nanog as well as the housekeeping gene, GAPDH (Glyceraldehyde 3-phosphate dehydrogenase) were then used to quantify gene expression. Expressions of genes of interest (Sox2 and Nanog) were normalized to control (GAPDH). We observed a dose dependent increase in both Sox2 and Nanog gene expression. Sox2 expression increased ˜30% and ˜50% with 2 μM and 5 μM BIO treatment, while Nanog expression increased >100% with 5 μM BIO treatment (FIG. 2).
structure (smiles),measurement,setting,value
"O=C1Nc2cc(Br)ccc2/C1=C1/Nc2ccccc2/C1=N\O [BIO, 6-bromoindirubin-3′-oxime]",2D proliferation relative to untreated control,[1]; 2 uM BIO,155%
same,increase in cell population compared to untreated controls,[1]; 2 μM BIO,4.5 fold
same,2D proliferation relative to untreated control,[1]; 5 uM BIO,172%
same,increase in cell population compared to untreated controls,[1]; 5 μM BIO,5.5 fold
same,hMSC population increase,"[1]; BIO-treated hMSCs, concentration and day not stated",~4 fold
same,increase in normalized TOPFlash signal compared to untreated controls,[2]; 2 μM BIO,71 fold
same,increase in normalized TOPFlash signal compared to untreated controls,[2]; 5 μM BIO,106 fold
same,"persistence of elevated TOPFlash signaling after BIO was removed, before returning to basal levels","[2]; C3H10T1/2, after 24 hr BIO treatment",three
same,Sox2 expression increase,[3]; 2 μM BIO,~30%
same,Nanog expression increase,[3]; 5 μM BIO,> 100%
same,Sox2 expression increase,[3]; 5 μM BIO,~50%
